Measurements taken from publication PMC5218480 (PLoS ONE, 2017).

Tested on: MV-4-11 cells
Experiment: Gene expression microarray analysis (Affymetrix PrimeView) and GSEA
Assay type: cell-based, human
Set-up: RFU PODN (11730768_x_at) / Fold change /veh PODN (11730768_x_at) / RFU LINC00158 (11744669_a_at) / Fold change /veh LINC00158 (11744669_a_at) / RFU DUSP10 (11751237_a_at) / Fold change /veh DUSP10 (11751237_a_at) / RFU ID3 (11757404_x_at) / Fold change /veh ID3 (11757404_x_at) / RFU PLEKHG5 (11737974_s_at) / Fold change /veh PLEKHG5 (11737974_s_at) / RFU LRRC4B (11730491_at) / Fold change /veh LRRC4B (11730491_at) / RFU GIMAP4 (11747438_a_at) / Fold change /veh GIMAP4 (11747438_a_at) / RFU KRT8 (11758183_x_at) / Fold change /veh KRT8 (11758183_x_at) / RFU CNN1 (11734310_a_at) / Fold change /veh CNN1 (11734310_a_at) / RFU VPS37D (11726825_at) / Fold change /veh VPS37D (11726825_at) / RFU C10orf10 (11716522_x_at) / Fold change /veh C10orf10 (11716522_x_at) / RFU KIR2DL2 /// KIR2DL4 /// KIR2DL5A /// KIR2DL5B /// KIR2DS1 /// KIR2DS2 /// KIR2DS3 /// KIR2DS4 /// KIR3DL3 /// KIR3DL3 /// KIR3DS1 (11738374_at) / Fold change /veh KIR2DL2 /// KIR2DL4 /// KIR2DL5A /// KIR2DL5B /// KIR2DS1 /// KIR2DS2 /// KIR2DS3 /// KIR2DS4 /// KIR3DL3 /// KIR3DL3 /// KIR3DS1 (11738374_at) / RFU C1QL1 (11718748_at) / Fold change /veh C1QL1 (11718748_at) / RFU TMPRSS4 (11747572_a_at) / Fold change /veh TMPRSS4 (11747572_a_at) / RFU HAMP (11756126_x_at) / Fold change /veh HAMP (11756126_x_at) / RFU RNFT2 (11725882_a_at) / Fold change /veh RNFT2 (11725882_a_at) / RFU NR4A2 (11747474_a_at) / Fold change /veh NR4A2 (11747474_a_at) / RFU ABCC12 (11746883_a_at) / Fold change /veh ABCC12 (11746883_a_at) / RFU TMEM136 (11760407_x_at) / Fold change /veh TMEM136 (11760407_x_at) / RFU CLDN22 /// WWC2 (11732394_at) / Fold change /veh CLDN22 /// WWC2 (11732394_at) / RFU HLA-DPB1 (11760878_x_at) / Fold change /veh HLA-DPB1 (11760878_x_at) / RFU SPINT1 (11716480_a_at) / Fold change /veh SPINT1 (11716480_a_at) / RFU GAP43 (11754022_s_at) / Fold change /veh GAP43 (11754022_s_at) / RFU A4GNT (11735810_at) / Fold change /veh A4GNT (11735810_at) / RFU PRB3 (11715151_x_at) / Fold change /veh PRB3 (11715151_x_at) / RFU TUBB4B (11761932_at) / Fold change /veh TUBB4B (11761932_at) / RFU CAPN14 (11732068_a_at) / Fold change /veh CAPN14 (11732068_a_at) / RFU TMCC2 (11721928_a_at) / Fold change /veh TMCC2 (11721928_a_at) / RFU IRGQ (11745062_a_at) / Fold change /veh IRGQ (11745062_a_at) / RFU FAM174B (11720279_a_at) / Fold change /veh FAM174B (11720279_a_at) / RFU TMPRSS4 (11748680_a_at) / Fold change /veh TMPRSS4 (11748680_a_at) / RFU FAM212B (11763350_a_at) / Fold change /veh FAM212B (11763350_a_at) / RFU PLEKHG5 (11743358_a_at) / Fold change /veh PLEKHG5 (11743358_a_at) / RFU ZSCAN30 (11745921_a_at) / Fold change /veh ZSCAN30 (11745921_a_at) / RFU CMKLR1 (11741424_a_at) / Fold change /veh CMKLR1 (11741424_a_at) / RFU LOC101060620 /// MAPK8IP1 (11723275_at) / Fold change /veh LOC101060620 /// MAPK8IP1 (11723275_at) / RFU SPTSSB (11747773_x_at) / Fold change /veh SPTSSB (11747773_x_at) / RFU PRSS12 (11739890_at) / Fold change /veh PRSS12 (11739890_at) / RFU BIN1 (11741810_x_at) / Fold change /veh BIN1 (11741810_x_at) / RFU WNT11 (11732464_a_at) / Fold change /veh WNT11 (11732464_a_at) / RFU C10orf10 (11716521_a_at) / Fold change /veh C10orf10 (11716521_a_at) / RFU C5orf56 (11738089_at) / Fold change /veh C5orf56 (11738089_at) / RFU CYB561 (11721691_x_at) / Fold change /veh CYB561 (11721691_x_at) / RFU ANKRD19P (11752326_a_at) / Fold change /veh ANKRD19P (11752326_a_at) / RFU OR2T12 /// OR2T33 /// OR2T8 (11738714_s_at) / Fold change /veh OR2T12 /// OR2T33 /// OR2T8 (11738714_s_at) / RFU VCAN (11748164_a_at) / Fold change /veh VCAN (11748164_a_at) / RFU JSRP1 (11732532_at) / Fold change /veh JSRP1 (11732532_at) / RFU KRTAP10-11 (11738290_x_at) / Fold change /veh KRTAP10-11 (11738290_x_at) / RFU MYO3A (11730013_a_at) / Fold change /veh MYO3A (11730013_a_at) / RFU EBF3 (11725865_a_at) / Fold change /veh EBF3 (11725865_a_at) / RFU CAMK2N1 (11719241_x_at) / Fold change /veh CAMK2N1 (11719241_x_at) / RFU C5orf56 (11738088_a_at) / Fold change /veh C5orf56 (11738088_a_at) / RFU OLFML3 (11715873_a_at) / Fold change /veh OLFML3 (11715873_a_at) / RFU LOC100653217 /// NTM (11731650_a_at) / Fold change /veh LOC100653217 /// NTM (11731650_a_at) / RFU MAPK11 (11762145_a_at) / Fold change /veh MAPK11 (11762145_a_at) / RFU FIZ1 (11724087_x_at) / Fold change /veh FIZ1 (11724087_x_at) / RFU OASL (11726364_x_at) / Fold change /veh OASL (11726364_x_at) / RFU SOX15 (11748057_x_at) / Fold change /veh SOX15 (11748057_x_at) / RFU CD79A (11719716_a_at) / Fold change /veh CD79A (11719716_a_at) / RFU HIST1H1D (11736915_at) / Fold change /veh HIST1H1D (11736915_at) / RFU CASKIN2 (11723855_a_at) / Fold change /veh CASKIN2 (11723855_a_at) / RFU LOC730098 (11760151_x_at) / Fold change /veh LOC730098 (11760151_x_at) / RFU OR4N2 (11742367_at) / Fold change /veh OR4N2 (11742367_at) / RFU PRRT2 (11749266_a_at) / Fold change /veh PRRT2 (11749266_a_at) / RFU SNX32 (11753110_a_at) / Fold change /veh SNX32 (11753110_a_at) / RFU CDHR5 (11726645_a_at) / Fold change /veh CDHR5 (11726645_a_at) / RFU RCAN1 (11760418_a_at) / Fold change /veh RCAN1 (11760418_a_at) / RFU FAM167A (11723789_a_at) / Fold change /veh FAM167A (11723789_a_at) / RFU FAM26E (11764081_at) / Fold change /veh FAM26E (11764081_at) / RFU ISYNA1 (11749810_s_at) / Fold change /veh ISYNA1 (11749810_s_at) / RFU ACY1 (11761880_at) / Fold change /veh ACY1 (11761880_at) / RFU 11764098_at / Fold change /veh 11764098_at / RFU SAMD14 (11745864_x_at) / Fold change /veh SAMD14 (11745864_x_at) / RFU NPB (11741838_a_at) / Fold change /veh NPB (11741838_a_at) / RFU TMPRSS6 (11731388_a_at) / Fold change /veh TMPRSS6 (11731388_a_at) / RFU KRTAP10-2 (11738614_at) / Fold change /veh KRTAP10-2 (11738614_at) / RFU ARHGAP8 /// PRR5-ARHGAP8 (11727945_x_at) / Fold change /veh ARHGAP8 /// PRR5-ARHGAP8 (11727945_x_at) / RFU KRTAP5-7 /// NADSYN1 (11734609_at) / Fold change /veh KRTAP5-7 /// NADSYN1 (11734609_at) / RFU RASL12 (11751679_a_at) / Fold change /veh RASL12 (11751679_a_at) / RFU CDKN2B (11736163_a_at) / Fold change /veh CDKN2B (11736163_a_at) / RFU PRF1 (11729649_at) / Fold change /veh PRF1 (11729649_at) / RFU, ZNF638 /// ZNF638-IT1 / Fold change vs veh, ZNF638 /// ZNF638-IT1 / RFU, PANK3 / Fold change vs veh, PANK3 / RFU, SH3YL1 / Fold change vs veh, SH3YL1 / RFU, ZEB2 / Fold change vs veh, ZEB2 / RFU, NRIP1 / Fold change vs veh, NRIP1 / RFU, PTTG1IP / Fold change vs veh, PTTG1IP / RFU, CAPN2 / Fold change vs veh, CAPN2 / RFU, MED14 / Fold change vs veh, MED14 / RFU, SNORA58 / Fold change vs veh, SNORA58 / RFU, C1orf63 / Fold change vs veh, C1orf63 / RFU, LRRFIP1 / Fold change vs veh, LRRFIP1 / RFU, NDUFAF7 / Fold change vs veh, NDUFAF7 / RFU, SLC12A2 / Fold change vs veh, SLC12A2 / RFU, IBTK / Fold change vs veh, IBTK / RFU, ESF1 / Fold change vs veh, ESF1 / Fold change vs veh, TMEM50B / RFU, TAOK1 / Fold change vs veh, TAOK1 / RFU, ACBD3 / Fold change vs veh, ACBD3 / RFU, TMA16 / Fold change vs veh, TMA16 / RFU, RWDD3 / Fold change vs veh, RWDD3 / RFU, BCAT1 / Fold change vs veh, BCAT1 / RFU, EDEM3 / Fold change vs veh, EDEM3 / RFU, TMEM33 / Fold change vs veh, TMEM33 / RFU, WDR75 / Fold change vs veh, WDR75 / RFU, AHCTF1 / Fold change vs veh, AHCTF1 / RFU, TFRC / Fold change vs veh, TFRC / RFU, ZDHHC17 / Fold change vs veh, ZDHHC17 / RFU, NOM1 / Fold change vs veh, NOM1 / RFU, ARL8B / Fold change vs veh, ARL8B / RFU, ZBTB11 / Fold change vs veh, ZBTB11 / RFU, TAMM41 / Fold change vs veh, TAMM41 / RFU, KIAA1704 /// LOC100996395 / Fold change vs veh, KIAA1704 /// LOC100996395 / RFU, ING1 / Fold change vs veh, ING1 / RFU, TRMT61B / Fold change vs veh, TRMT61B / RFU, FUBP3 / Fold change vs veh, FUBP3 / RFU, TP53 / Fold change vs veh, TP53 / RFU, TNKS2 / Fold change vs veh, TNKS2 / RFU, ZFP14 / Fold change vs veh, ZFP14 / RFU, ACTR2 / Fold change vs veh, ACTR2 / RFU, PPP3R1 / Fold change vs veh, PPP3R1 / RFU, PIK3R1 / Fold change vs veh, PIK3R1 / RFU, HNRNPA1 / Fold change vs veh, HNRNPA1 / RFU, RNF170 / Fold change vs veh, RNF170 / RFU, ZNF28 / Fold change vs veh, ZNF28 / RFU, RNGTT / Fold change vs veh, RNGTT / RFU, OGT / Fold change vs veh, OGT / RFU, BRD1 / Fold change vs veh, BRD1 / RFU, MARS / Fold change vs veh, MARS / RFU, ZNF655 / Fold change vs veh, ZNF655 / RFU, FAHD1 / Fold change vs veh, FAHD1 / RFU, BDP1 / Fold change vs veh, BDP1 / RFU, LRRCC1 / Fold change vs veh, LRRCC1 / RFU, ARID1A / Fold change vs veh, ARID1A / RFU, ZNF146 / Fold change vs veh, ZNF146 / RFU, ZNF330 / Fold change vs veh, ZNF330 / RFU, GPN3 / Fold change vs veh, GPN3 / RFU, C9orf123 / Fold change vs veh, C9orf123 / RFU, N4BP2L2 / Fold change vs veh, N4BP2L2 / RFU, ARFIP1 / Fold change vs veh, ARFIP1 / RFU, FAM179B / Fold change vs veh, FAM179B / RFU, BCL10 / Fold change vs veh, BCL10 / RFU, UHRF1BP1L / Fold change vs veh, UHRF1BP1L / RFU, BET1 / Fold change vs veh, BET1 / RFU, CNOT2 / Fold change vs veh, CNOT2 / RFU, ZNF268 / Fold change vs veh, ZNF268 / Fold change vs veh, ZNF507 / RFU, DGCR2 / Fold change vs veh, DGCR2 / RFU, WDSUB1 / Fold change vs veh, WDSUB1 / Fold change vs veh, HSP90B1 /// MIR3652 / RFU, ADSS / Fold change vs veh, ADSS / RFU, GK / Fold change vs veh, GK / RFU, ZNF148 / Fold change vs veh, ZNF148 / RFU, TAF9 / Fold change vs veh, TAF9 / RFU, SLC1A5 / Fold change vs veh, SLC1A5 / RFU, SLMO2 / Fold change vs veh, SLMO2 / RFU, ABCC4 / Fold change vs veh, ABCC4 / RFU, LOC101060439 /// RAP1B / Fold change vs veh, LOC101060439 /// RAP1B / RFU, RFX7 / Fold change vs veh, RFX7 / RFU, GTPBP10 / Fold change vs veh, GTPBP10 / RFU, CNEP1R1 / Fold change vs veh, CNEP1R1 / RFU, BIVM-ERCC5 /// ERCC5 / Fold change vs veh, BIVM-ERCC5 /// ERCC5 / RFU, ILF3 / Fold change vs veh, ILF3 / RFU 11762660_at / Fold change /veh 11762660_at / RFU VCAN (11757783_s_at) / Fold change /veh VCAN (11757783_s_at) / RFU DDX43 (11728927_at) / Fold change /veh DDX43 (11728927_at) / RFU KRT8 (11758188_x_at) / Fold change /veh KRT8 (11758188_x_at) / RFU NKD1 (11759106_at) / Fold change /veh NKD1 (11759106_at) / RFU SRD5A1 (11742802_a_at) / Fold change /veh SRD5A1 (11742802_a_at) / RFU TPSAB1 /// TPSB2 (11721975_s_at) / Fold change /veh TPSAB1 /// TPSB2 (11721975_s_at) / RFU GSTM3 (11746129_a_at) / Fold change /veh GSTM3 (11746129_a_at) / RFU IL23R (11737362_x_at) / Fold change /veh IL23R (11737362_x_at) / RFU TMEM51 (11727254_a_at) / Fold change /veh TMEM51 (11727254_a_at) / RFU PIWIL2 (11732686_x_at) / Fold change /veh PIWIL2 (11732686_x_at) / RFU ORM1 (11744905_x_at) / Fold change /veh ORM1 (11744905_x_at) / RFU CCDC152 (11743942_at) / Fold change /veh CCDC152 (11743942_at) / RFU ECM1 (11717891_a_at) / Fold change /veh ECM1 (11717891_a_at) / RFU IL23R (11748794_a_at) / Fold change /veh IL23R (11748794_a_at) / RFU TNFAIP8L3 (11732012_x_at) / Fold change /veh TNFAIP8L3 (11732012_x_at) / RFU MBOAT4 (11741988_at) / Fold change /veh MBOAT4 (11741988_at) / RFU 11764193_at / Fold change /veh 11764193_at / RFU TMEM53 (11763286_at) / Fold change /veh TMEM53 (11763286_at) / RFU MAGEB2 (11727129_at) / Fold change /veh MAGEB2 (11727129_at) / RFU TMEM200A (11744735_a_at) / Fold change /veh TMEM200A (11744735_a_at) / RFU CCDC152 (11751479_a_at) / Fold change /veh CCDC152 (11751479_a_at) / RFU FAM211A (11726209_a_at) / Fold change /veh FAM211A (11726209_a_at) / RFU RGS16 (11746705_a_at) / Fold change /veh RGS16 (11746705_a_at) / RFU VCAN (11755009_s_at) / Fold change /veh VCAN (11755009_s_at) / RFU RHOB (11743442_s_at) / Fold change /veh RHOB (11743442_s_at) / RFU RGS16 (11720943_a_at) / Fold change /veh RGS16 (11720943_a_at) / RFU RGS16 (11720944_at) / Fold change /veh RGS16 (11720944_at) / RFU, VPS4B / Fold change vs veh, VPS4B / RFU, CREB1 / Fold change vs veh, CREB1 / RFU, DNAJC13 / Fold change vs veh, DNAJC13 / RFU, GNAQ / Fold change vs veh, GNAQ / RFU, CDK5R1 / Fold change vs veh, CDK5R1 / RFU, ZRANB3 / Fold change vs veh, ZRANB3 / RFU, CUL4A / Fold change vs veh, CUL4A / RFU, CCNY / Fold change vs veh, CCNY / RFU, UFL1 / Fold change vs veh, UFL1 / RFU, COG3 / Fold change vs veh, COG3 / RFU, DIAPH2 / Fold change vs veh, DIAPH2 / RFU, SKA2 / Fold change vs veh, SKA2 / RFU, AFF3 / Fold change vs veh, AFF3 / RFU, LMF1 / Fold change vs veh, LMF1 / RFU, IPO11 / Fold change vs veh, IPO11 / RFU, DFFB / Fold change vs veh, DFFB / RFU, FOXP1 / Fold change vs veh, FOXP1 / RFU, CARD8 / Fold change vs veh, CARD8 / RFU, STRN3 / Fold change vs veh, STRN3 / RFU, ADK / Fold change vs veh, ADK / RFU, RASSF2 / Fold change vs veh, RASSF2 / RFU, WIPF1 / Fold change vs veh, WIPF1 / RFU, LARP1B / Fold change vs veh, LARP1B / RFU, RASA1 / Fold change vs veh, RASA1 / RFU, RB1 / Fold change vs veh, RB1 / RFU, PPFIA1 / Fold change vs veh, PPFIA1 / RFU, MAT2A / Fold change vs veh, MAT2A / RFU, CCT5 / Fold change vs veh, CCT5 / RFU, WDR92 / Fold change vs veh, WDR92 / RFU, CUX1 / Fold change vs veh, CUX1 / RFU, TTC7A / Fold change vs veh, TTC7A / RFU, TMEM135 / Fold change vs veh, TMEM135 / RFU, DEPTOR / Fold change vs veh, DEPTOR / RFU, CPM / Fold change vs veh, CPM / RFU, DNAJB6 / Fold change vs veh, DNAJB6 / RFU, CACNA2D3 / Fold change vs veh, CACNA2D3 / RFU, DTX4 / Fold change vs veh, DTX4 / RFU, TFCP2 / Fold change vs veh, TFCP2 / RFU, GMCL1 /// GMCL1P1 / Fold change vs veh, GMCL1 /// GMCL1P1 / RFU, AEBP2 / Fold change vs veh, AEBP2 / RFU, SNHG1 /// SNORD22 /// SNORD25 /// SNORD26 /// SNORD27 /// SNORD28 /// SNORD29 /// SNORD31 / Fold change vs veh, SNHG1 /// SNORD22 /// SNORD25 /// SNORD26 /// SNORD27 /// SNORD28 /// SNORD29 /// SNORD31 / Fold change (Aza/veh), C12orf56 (ProbeSet 11735607_a_at) / Fold change (ACY-1035/veh), C12orf56 (ProbeSet 11735607_a_at) / Fold change (Aza/veh), FGFR1OP (ProbeSet 11751329_s_at) / Fold change (ACY-1035/veh), FGFR1OP (ProbeSet 11751329_s_at) / Fold change (Aza/veh), VPS36 (ProbeSet 11739960_a_at) / Fold change (ACY-1035/veh), VPS36 (ProbeSet 11739960_a_at) / RFU SYPL1 (11715823_x_at) / Fold change /veh SYPL1 (11715823_x_at) / RFU IGFBP7 (11715501_s_at) / Fold change /veh IGFBP7 (11715501_s_at) / RFU REEP3 (11722064_at) / Fold change /veh REEP3 (11722064_at) / RFU IGLL1 (11728026_x_at) / Fold change /veh IGLL1 (11728026_x_at): dose or concentration left out as unconfirmed
Settings: MV-4-11 cells, 48 hours

## Nc1ccc(-c2cccs2)cc1NC(=O)c1ccc2c(c1)cc(C1CC1)n2CCN1CCOCC1 [ACY-1035]
  RFU SAMD14 (11745864_x_at): 19.46 RFU
